Measured values from US12497359B2, “Acrylamide derivatives” (NRG Therapeutics Ltd, priority 2020, dated 2025).

System: mPTP
Assay: mPTP human platelet mitochondria membrane potential flow cytometry assay
Format: cell-based
Conditions: stimulated human platelets
Description: The mPTP cell based assay was performed using a mitochondria membrane potential flow cytometry assay in stimulated human platelets. Simulation of platelets results in the rapid influx of Ca^2+ across the platelet membrane. The Ca^2+ is then sequestered by mitochondria until the threshold for mPTP opening is reached, at which point the pore opens and the mitochondrial membrane potential is dissipated. Changes in mitochondria membrane potential due to mPTP opening can be quantified in live platelets using standard mitochondrial membrane potential dyes e.g. 3,3′-dihexyloxacarbocyanine Iodide; DiOC6 (3), enabling pharmacological characterisation of mPTP inhibitors.
Fresh human blood (20 ml) was collected from consented donors into 3.2% sodium citrate. Platelets were isolated by centrifugation at 200 g for 20 min at room temperature, then the platelet rich plasma layer transferred to a fresh tube. Prostaglandin 12 is added to the platelets at a final concentration of 20 ng/ml. After centrifugation at 640 g for 10 min, the platelet rich pellet was resuspended in 4 ml HEPES assay buffer (137 mM NaCl, 2.7 mM KCl, 11.9 mM NaHCO3, 0.42 mM NaH2PO4, 1 mM MgCl2, 5.5 mM glucose, 0.1% bovine serum albumin, 10 mM HEPES adjusted to pH 7.4) and stored on ice.
Test compounds were prepared from 10 mM stocks in DMSO and serially diluted in assay buffer containing 0.4% DMSO and 25 μl transferred into a 96 well plate. Platelets were loaded with the mitochondrial membrane potential dye DiOC6 (3) (3,3′-dihexyloxacarbocyanine Iodide; Invitrogen) at 200 nM for 30 min, then 50 μl plated into each well of the 96 well plate containing diluted test compound and incubated for 15 min. Control wells included DMSO (0.1% final concentration) only or 5 μM cyclosporin A. Platelets were then stimulation with the addition of assay buffer (25 μl) containing CaCl2, alpha thrombin and Convulxin to achieve a final concentrations of 2 mM, 0.017 U/ml and 0.167 μg/ml respectively and incubated for 14 min. The reaction was stopped by the addition of 25 μl 15 mM EDTA in assay buffer. The mitochondrial membrane potential across the population of platelets in each well was then quantified by flow cytometry using a Guava easyCyte 5 Benchtop Flow Cytometer with 3000 events per well. The percentage of platelets with a depolarised mitochondrial membrane potential was calculated for each well. A pIC50 for each compound was then calculated using a standard four parameter curve fit model (GraphPad Prism).

SMILES	mPTP Human platelets pIC50
C[C@H]1Cc2ccccc2[C@@H]1NC(=O)/C=C/c1ccc2cn[nH]c2c1 (single isomer, unassigned) [Example 14c]	6.8
O=C(/C=C/c1ccc2cn[nH]c2c1)N[C@@H]1CCc2ccccc21 [Example 3, (R,E)-N-(2,3-dihydro-1H-inden-1-yl)-3-(1H-indazol-6-yl)acrylamide]	7.3
